System: human neutrophils
Assay: Insall chamber assay with DPPIV enzyme inhibitors, with or without rDPPIV
Format: cell-based
Conditions: FIG. 5; for chemorepulsion of neutrophils away from the source of rDPPIV: inhibitor added with rDPPIV, compared to rDPPIV alone; for attraction or repulsion of human neutrophils: inhibitor alone
Procedure: Cover slips were then washed twice with PBS, and neutrophils at approximately 5×10^6 cells/ml were allowed to adhere to the coverslip for 15 minutes at 37° C. Two concentric depressions and the separating bridge in an Insall chamber slide were filled with 2% (w/v) BSA-RPMI. The media was removed from the coverslips, which were then placed face down on the chamber. Media was then removed from the outer chamber and was replaced by rDPPIV alone, DPPIV inhibitor alone (Diprotin A, Enzo Life Sciences or DPPI 1 c hydrochloride, Tocris Bioscience (Bristol, UK)), rDPPIV plus DPPIV inhibitor (all in 2% (w/v) BSA-RPMI), or 2% (w/v) BSA-RPMI. Cells located on the bridge between the square depressions were then filmed using the methods of Ochsner, S. A., et al., Disrupted function of tumor necrosis factor-alpha-stimulated gene 6 blocks cumulus cell-oocyte complex expansion. Endocrinology, 2003. 144(10): p. 4376-84, incorporated in material part by reference herein, using a 10× objective for 1 hour at 37° C. in a humidified 5% CO2 incubator. The displacement of at least 10 randomly-chosen cells per experiment was measured over periods of 10 minutes. Cell tracking and track analysis were performed according to the methods of Phillips, J. E. and R. H. Gomer, A secreted protein is an endogenous chemorepellant in Dictyostelium discoideum. Proc Natl Acad Sci U S A, 2012. 109(27): p. 10990 - 10996, incorporated in material part by reference herein, with the exception that videos of an hour in length were processed into 10 minute segments to yield a TIFF stack of 47 images for analysis (with 13-second intervals between images).
DPPIV enzyme activity has been implicated in chemotaxis of hematopoietic stem cells through cleavage of SDF-1. To determine if DPPIV enzyme activity is responsible for neutrophil chemorepulsion, two enzyme inhibitors of DPPIV, Diprotin A and DPPI 1 c HCl, were used in Insall chamber assays along with DPPIV.

SMILES	chemorepulsion of neutrophils away from the source of rDPPIV	attraction or repulsion of human neutrophils
CC[C@H](C)[C@H](N)C(=O)N1CCC[C@H]1C(=O)N[C@H](C(=O)O)[C@@H](C)CC [Diprotin A]	significantly reduced	caused no attraction or repulsion
Cl.N#C[C@@H]1CC[C@H](C#N)N1C(=O)CNC1(CO)CCCC1 [DPPI 1 c HCl, DPPI 1 c hydrochloride]	significantly reduced	caused no attraction or repulsion

Source: patent US20130039897A1, “COMPOSITIONS AND METHODS FOR REGULATING NEUTROPHIL MOVEMENT AND NEUTROPHIL NUMBERS IN A BODY REGION” (The Texas A&M University System, priority 2011, published 2013)
